Key:
[1] = biological target: T1, human progesterone receptor B (Homo sapiens, UniProt P06401); test: Progesterone receptor-antagonistic action in stably transfected SK-N-MC cells, MMTV-LUC reporter (PR-B); type: cell-based; conditions: antagonistic potency vs 0.1 nmol/l promegestone, 24 hours
T1 construct: expressed in transfected cells; host or cells: SK-N-MC human neuroblastoma cells, stably transfected with pRChPR-B-neo and pMMTV-LUC
T1 sequence (P06401 1-933): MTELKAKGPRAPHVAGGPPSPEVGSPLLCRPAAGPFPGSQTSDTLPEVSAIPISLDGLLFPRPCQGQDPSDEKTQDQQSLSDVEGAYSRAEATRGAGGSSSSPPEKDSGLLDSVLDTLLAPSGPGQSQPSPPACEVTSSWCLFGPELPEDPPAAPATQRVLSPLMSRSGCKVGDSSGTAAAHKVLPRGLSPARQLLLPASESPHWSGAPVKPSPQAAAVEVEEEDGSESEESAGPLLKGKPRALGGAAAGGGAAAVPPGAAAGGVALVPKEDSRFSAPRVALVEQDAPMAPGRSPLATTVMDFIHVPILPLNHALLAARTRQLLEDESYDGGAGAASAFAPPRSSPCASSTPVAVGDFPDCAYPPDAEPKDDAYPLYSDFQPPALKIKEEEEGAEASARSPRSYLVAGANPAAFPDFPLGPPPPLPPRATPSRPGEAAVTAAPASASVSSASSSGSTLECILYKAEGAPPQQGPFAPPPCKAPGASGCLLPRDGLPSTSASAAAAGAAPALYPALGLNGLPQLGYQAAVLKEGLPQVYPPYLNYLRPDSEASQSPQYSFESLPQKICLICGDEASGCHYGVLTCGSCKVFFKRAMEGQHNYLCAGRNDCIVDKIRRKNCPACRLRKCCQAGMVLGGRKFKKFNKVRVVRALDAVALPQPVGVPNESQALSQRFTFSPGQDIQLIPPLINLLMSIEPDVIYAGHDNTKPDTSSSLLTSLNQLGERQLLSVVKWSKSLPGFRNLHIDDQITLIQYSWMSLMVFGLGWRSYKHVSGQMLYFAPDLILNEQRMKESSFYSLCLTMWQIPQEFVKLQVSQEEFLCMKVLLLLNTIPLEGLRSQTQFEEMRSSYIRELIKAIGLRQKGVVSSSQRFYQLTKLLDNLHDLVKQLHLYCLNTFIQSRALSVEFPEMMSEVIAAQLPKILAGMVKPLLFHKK
Method in brief: (§1)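 Stably transfected SK-N-MC cells express human PR-B or PR-A plus MMTV-LUC. For antagonism they were co-treated with 0.1 nmol/l promegestone and compound (0.01 nmol/l upward) for 24 hours. Luciferase in lysates was read as RLU and reported as % efficacy and IC50.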

[2] = Metabolic stability in rat liver microsomes; type: in vitro ADME; conditions: calculated from liver microsome clearance
Description: (§2) Determination of Metabolic Stability in Human and Rat Liver Microsomes
(§3) The incubations were conducted with 2.4 ml of HLM solution (protein content 0.5 mg/ml), 30 μl of the test compound (final concentration 1 μM) and 0.6 ml of the cofactor mixture (=NADPH-generating system composed of 3 IU glucose-6-phosphate dehydrogenase, 14.6 mg glucose-6-phosphate, 1.2 mg NADP) at 37° C. in 100 mM phosphate buffer at pH 7.4. Samples were taken at 6 time points (2-60 min) and precipitated with an equal volume of methanol, and the recovery of the test substances used in the supernatant was determined by LC-MS/MS analysis. The half-life of substance degradation determined therefrom was used to calculate what is called the intrinsic clearance of the substance in the liver microsome preparation. […] In addition, under the assumptions that (i) absorption of the test substance is 100%, and (ii) the first pass is completely reflected by liver microsome metabolism, a maximum oral bioavailability (Fmax) was calculated.

[3] = biological target: T2, human progesterone receptor A (Homo sapiens, UniProt P06401); test: Progesterone receptor-antagonistic action in stably transfected SK-N-MC cells, MMTV-LUC reporter (PR-A); type: cell-based; conditions: antagonistic potency vs 0.1 nmol/l promegestone, 24 hours
T2 construct: expressed in transfected cells; host or cells: SK-N-MC human neuroblastoma cells, stably transfected with pRChPR-A-neo and pMMTV-LUC
T2 sequence (P06401 1-769 isoform P06401-2): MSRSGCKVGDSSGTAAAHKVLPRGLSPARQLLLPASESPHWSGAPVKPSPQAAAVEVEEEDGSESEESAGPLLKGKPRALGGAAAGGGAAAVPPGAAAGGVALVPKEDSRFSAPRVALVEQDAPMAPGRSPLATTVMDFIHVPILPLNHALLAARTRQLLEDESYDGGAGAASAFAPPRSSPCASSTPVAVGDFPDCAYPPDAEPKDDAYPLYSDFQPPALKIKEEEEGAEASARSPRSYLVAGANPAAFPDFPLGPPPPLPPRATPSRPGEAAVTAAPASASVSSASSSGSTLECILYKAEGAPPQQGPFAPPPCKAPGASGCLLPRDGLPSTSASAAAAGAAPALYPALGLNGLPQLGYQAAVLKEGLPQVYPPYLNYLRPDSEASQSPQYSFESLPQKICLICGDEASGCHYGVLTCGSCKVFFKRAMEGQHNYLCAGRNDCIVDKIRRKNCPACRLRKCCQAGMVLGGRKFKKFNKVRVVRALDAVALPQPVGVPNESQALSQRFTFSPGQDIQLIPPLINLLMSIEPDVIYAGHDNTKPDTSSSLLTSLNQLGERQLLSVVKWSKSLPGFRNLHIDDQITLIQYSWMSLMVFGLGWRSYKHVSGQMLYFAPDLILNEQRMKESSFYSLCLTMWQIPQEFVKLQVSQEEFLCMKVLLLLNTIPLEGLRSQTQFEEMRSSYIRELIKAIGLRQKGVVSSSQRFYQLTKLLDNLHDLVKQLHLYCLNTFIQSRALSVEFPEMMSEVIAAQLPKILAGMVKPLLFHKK
Method in brief: as §1

[4] = Metabolic stability in human liver microsomes; type: in vitro ADME; conditions: calculated from liver microsome clearance
Description: as §2
Isolated human liver microsomes (HLM) were used to assess the metabolic stability of compounds of general formula I.
as §3

In the case of `C[C@]12C[C@H](c3ccc(CNC(=O)Nc4ccccc4)cc3)C3=C4CCC(=O)C=C4CC[C@H]3[C@@H]1CC[C@@]2(O)C(F)(F)C(F)(F)F` [Example 24, 1-[4-((8S,11R,13S,14S,17S)-17-hydroxy-13-methyl-3-oxo-17-pentafluoroethyl-2,3,6,7,8,11,12,13,14,15,16,17-dodecahydro-1H-cyclopenta[a]phenanthren-11-yl)benzyl]-3-phenyl urea], the IC50 [1] is reported as 0.5 nM, the “Predicted Fmax (maximum oral bioavailability)” value (from here on “Predicted Fmax”) [2] is reported as 77% and the IC50 [3] is reported as 0.4 nM.

In the case of `CC1(c2ccc([C@H]3C[C@@]4(C)[C@@H](CC[C@@]4(O)C(F)(F)C(F)(F)F)[C@@H]4CCC5=CC(=O)CCC5=C43)cc2)CC1` [Example 4, (8S,11R,13S,14S,17S)-17-hydroxy-13-methyl-11-[4-(1-methylcyclopropyl)phenyl]-17-pentafluoroethyl-1,2,6,7,8,11,12,13,14,15,16,17-dodecahydrocyclopenta[a]phenanthren-3-one], the IC50 [1] is reported as 0.012 nM, the “Predicted Fmax” value [4] is reported as 37% and the “Predicted Fmax” value [2] is reported as 52%. It also gave an IC50 [3] of 0.012 nM.

In the case of `C[C@]12C[C@H](c3ccc(C#N)cc3)C3=C4CCC(=O)C=C4CC[C@H]3[C@@H]1CC[C@@]2(O)C(F)(F)C(F)(F)F` [Example 30, 4-((8S,11R,13S,14S,17S)-17-hydroxy-13-methyl-3-oxo-17-pentafluoroethyl-2,3,6,7,8,11,12,13,14,15,16,17-dodecahydro-1H-cyclopenta[a]phenanthren-11-yl)benzonitrile], the IC50 [1] is reported as 0.08 nM, the “Predicted Fmax” value [4] is reported as 63% and the “Predicted Fmax” value [2] is reported as 79%. For the same molecule, the IC50 [3] was 0.02 nM.

For `CCNC(=O)OCc1ccc([C@H]2C[C@@]3(C)[C@@H](CC[C@@]3(O)C(F)(F)C(F)(F)F)[C@@H]3CCC4=CC(=O)CCC4=C32)cc1` [Example 41, ethylcarbamic acid 4-((8S,11R,13S,14S,17S)-17-hydroxy-13-methyl-3-oxo-17-pentafluoroethyl-2,3,6,7,8,11,12,13,14,15,16,17-dodecahydro-1H-cyclopenta[a]phenanthren-11-yl)benzyl ester], the IC50 [1] was 0.1 nM, the “Predicted Fmax” value [2] was 49% and the IC50 [3] was 0.09 nM.

In the case of `CC(C)(O)c1ccc([C@H]2C[C@@]3(C)[C@@H](CC[C@@]3(O)C(F)(F)C(F)(F)F)[C@@H]3CCC4=CC(=O)CCC4=C32)cc1` [Example 5, (8S,11R,13S,14S,17S)-17-hydroxy-11-[4-(1-hydroxy-1-methylethyl)phenyl]-13-methyl-17-pentafluoroethyl-1,2,6,7,8,11,12,13,14,15,16,17-dodecahydrocyclopenta[a]phenanthren-3-one], the IC50 [1] is reported as 0.09 nM, the “Predicted Fmax” value [4] is reported as 44% and the “Predicted Fmax” value [2] is reported as 52%. For the same molecule, the IC50 [3] was 0.016 nM.

With `CCNC(=O)NCc1ccc([C@H]2C[C@@]3(C)C(CC[C@@]3(O)C(F)(F)C(F)(F)F)C3CCC4=CC(=O)CCC4=C32)cc1` (stereo partly drawn) [Example 17, 1-ethyl-3-[4-((8S,11R,13S,14S,17S)-17-hydroxy-13-methyl-3-oxo-17-pentafluoroethyl-2,3,6,7,8,11,12,13,14,15,16,17-dodecahydro-M-cyclopenta[a]phenanthren-11-yl)benzyl]urea] the IC50 [1] was 0.8 nM, the “Predicted Fmax” value [2] was 63% and the IC50 [3] was 0.4 nM.

For `Cc1nc(CCc2ccc([C@H]3C[C@@]4(C)[C@@H](CC[C@@]4(O)C(F)(F)C(F)(F)F)[C@@H]4CCC5=CC(=O)CCC5=C43)cc2)cs1` [Example 3, (8S,11R,13S,14S,17S)-17-hydroxy-13-methyl-11-{4-[2-(2-methylthiazol-4-yl)ethyl]phenyl}-17-pentafluoroethyl-1,2,6,7,8,11,12,13,14,15,16,17-dodecahydrocyclopenta[a]phenanthren-3-one], the IC50 [1] was 0.04 nM, the “Predicted Fmax” value [2] was 15% and the IC50 [3] was 0.09 nM.

For `C[C@]12C[C@H](c3ccc(CCC#N)cc3)C3=C4CCC(=O)C=C4CC[C@H]3[C@@H]1CC[C@@]2(O)C(F)(F)C(F)(F)F` [Example 9, 3-[4-((8S,11R,13S,14S,17S)-17-hydroxy-13-methyl-3-oxo-17-pentafluoroethyl-2,3,6,7,8,11,12,13,14,15,16,17-dodecahydro-1H-cyclopenta[a]phenanthren-11-yl)phenyl]propionitrile], the IC50 [1] was 0.1 nM, the “Predicted Fmax” value [2] was 4.9% and the IC50 [3] was 0.06 nM.

With `C[C@]12C[C@H](c3ccc(CCc4ccccn4)cc3)C3=C4CCC(=O)C=C4CC[C@H]3[C@@H]1CC[C@@]2(O)C(F)(F)C(F)(F)F` [Example 2, (8S,11R,13S,14S,17S)-17-hydroxy-13-methyl-17-pentafluoroethyl-11-[4-(2-pyridin-2-ylethyl)phenyl]-1,2,6,7,8,11,12,13,14,15,16,17-dodecahydrocyclopenta[a]phenanthren-3-one] the IC50 [1] was 0.11 nM, the “Predicted Fmax” value [2] was 18% and the IC50 [3] was 0.095 nM.

In the case of `C[C@]12C[C@H](c3ccc(CCc4ccncc4)cc3)C3=C4CCC(=O)C=C4CC[C@H]3[C@@H]1CC[C@@]2(O)C(F)(F)C(F)(F)F` [Example 8, (8S,11R,13S,14S,17S)-17-hydroxy-13-methyl-17-pentafluoroethyl-11-[4-(2-pyridin-4-ylethyl)phenyl]-1,2,6,7,8,11,12,13,14,15,16,17-dodecahydrocyclopenta[a]phenanthren-3-one], the IC50 [1] is reported as 0.09 nM, the “Predicted Fmax” value [2] is reported as 19% and the IC50 [3] is reported as 0.08 nM.

In the case of `C[C@]12C[C@H](c3ccc(CCc4cccnc4)cc3)C3=C4CCC(=O)C=C4CC[C@H]3[C@@H]1CC[C@@]2(O)C(F)(F)C(F)(F)F` [Example 7, (8S,11R,13S,14S,17S)-17-hydroxy-13-methyl-17-pentafluoroethyl-11-[4-(2-pyridin-3-ylethyl)phenyl]-1,2,6,7,8,11,12,13,14,15,16,17-dodecahydrocyclopenta[a]phenanthren-3-one], the IC50 [1] is reported as 0.09 nM, the “Predicted Fmax” value [2] is reported as 20% and the IC50 [3] is reported as 0.08 nM.

In the case of `C[C@]12C[C@H](c3ccc(CNC(=O)NCc4ccccc4)cc3)C3=C4CCC(=O)C=C4CC[C@H]3[C@@H]1CC[C@@]2(O)C(F)(F)C(F)(F)F` [Example 23, 1-benzyl-3-[4-((8S,11R,13S,14S,17S)-17-hydroxy-13-methyl-3-oxo-17-pentafluoroethyl-2,3,6,7,8,11,12,13,14,15,16,17-dodecahydro-1H-cyclopenta[a]phenanthren-11-yl)benzyl]urea], the IC50 [1] is reported as 0.8 nM, the “Predicted Fmax” value [2] is reported as 29% and the IC50 [3] is reported as 0.3 nM.
